This note sets out measurements from patent publication US20110098492A1, “CLEANING COMPOSITIONS CONTAINING MID-RANGE ALKOXYLATES” (priority 2008, published 2011).

The nature of data set [1]: Cleaning of cross-linked triglycerides (Gardner scrubber, soiled vinyl tile). Set-up: key to Arbitrary Gray Value: mean gray value of tile image (ImageJ). The following applies: for Arbitrary Gray Value: 120 back-and-forth strokes, higher = better cleaning; for cleaning of cross-linked triglycerides (in words): aqueous solution, compared with NP-9 / APEs. Here is the method: Test panels coated with mixtures of triglycerides and cross-linked triglycerides were prepared and evaluated using the following procedure. Cobalt Naphthenate was used as a catalyst to accelerate the oxidation of vegetable oil to give a hard varnish. Carbon black is added to the varnish to enable easy visual comparison of the ability to clean the cross-linked triglyceride from the surface.
Substrate Panels: White Vinyl Floor Tile: Tarket Corporation Azrock™ VS304-3 (6913) cut to 4¼×4¼ inch (to fit the Gardner Linear Motion Scrubber).
Soil Formulation: 100 grams Canola Oil (Food Grade, 100%, Kroger Co. Cincinnati, Ohio 45202); 2 grams Acetylene Carbon Black (Cat #39724, Alfa Aesar; Surface area=74 sq m/g); 20 grams drying agent: Cobalt Naphthenate Solution (Aldrich Cat #54,457-4, CAS #61789-51-3) (Comes as a 6% solution in petroleum solvent); Oven: Convection oven set at 160° F.
Scrubbing Tester: Gardco washability & Wear Tester; Linear Motion Test Equipment; Model D12-V Cat #WA-2164 (Paul N. Gardner Company, Inc. 316 N.E. First Street, Pompano, Beach, Fla. 33060.
Sponges: “Do-It” Cellulose Sponge, 1⅝ in thick, cut to 3″×4″. Manufactured by Bloch/New England for HWI, Fort Wayne, Ind. 46801;
Paint Brushes: Economy Chip Brush 1 Inch. www.lgsourcing.com Model #0106; Item #103407 obtained from Lowes, Inc. L. G. Sourcing, Inc. P.O. Box 1535 North Wilkseboro, N.C. 28659
Reflectance Meter: HunterLab ColorQuest XE
Prepare a stock solution by mixing 98 grams of canola oil (food grade) with 2.0 g acetylene-based carbon black (Cat #39724, Alfa Aesar; Surface area=74 sq m/g). Mix with a disperser at 2000 rpm for 15 min. (We used a Caframo Model BDC 3030 with a 0.50 dispersing blade).
Add 20.0 grams Cobalt Naphthenate Solution and mix well (by hand, using a glass stir rod).
Place 1.6 grams soil per 4×4 inch tile.
Paint to a thin film using a clean 1-inch economy brush. Use several strokes to get to an even coating. Use a clean, dry brush for each application. (After the application, each brush can be cleaned with acetone, dried, and then re-used).
Place in a convection oven set at 160 F for 16 hours. We place the panels in an oven at 4:00 p.m, and then remove the panels at 8:00 a.m. the next morning. Let the panels cool for 1 hour.
Use the panels within 10 days
Place a panel in the Gardner Scrubber
[…] (We use 5.0 grams surfactant diluted to 500 mL water).
Prepare a sponge by rinsing several times in cold tap water. Completely squeeze out the sponge by hand.
After each test, rinse out the sponge 15-20 times (by repeated sorption and squeezing) until there is no noticeable surfactant solution left (usually indicated by a lack of foam).
Pour 500 mL of surfactant solution into a beaker
Place the sponge into the beaker—allowing it to soak up as much surfactant as possible.
Place the sponge into the Gardner Scrubber.
Pour the remaining liquid (approx 400 mL) over the test panel in the scrubber. There should be enough liquid to just cover the test panel.
Program the scrubber to perform 120 back-and-forth strokes (for a total of 240 linear strokes). We define each back-and-forth stroke as “1 stroke”
Remove the panel rinse with tap water
Clean the Gardner scrubber by rinsing with tap water.
Clean the sponge by squeezing it out under tap water 20-30 times until clean.
Remove excess water from the sponge by squeezing as much liquid out as possible.
After the panel is dry, either take pictures (for visual comparison of cleaning) or measure the reflectance using the Xyy mode of a Hunter Colorimeter. Alternatively, the mean gray value can be obtained by taking a picture of the tiles and processing computer image with ImageJ™ software, which is distributed freely by the National Institute of Health (nih.gov).

In a further data set the test system is Sicklepod. Description: Greenhouse herbicide adjuvant efficacy with glyphosate. The following applies: adjuvant 0.25% v/v in spray, visual injury at 18 DAA. The class given is in vivo. Here is the method: Efficacy of Examples 7 and 8 as adjuvants in formulated herbicides is compared to commercially available herbicide packages. Greenhouse field testing is completed. A 480 g ae/L (acid equivalent per liter) formulation of glyphosate isopropylamine with no adjuvants is added to spray vials. These aliquots are diluted to a final volume of 60 ml with tap water, and appropriate amounts of adjuvants are added to the spray solution. The Examples 7 and 8 series are tested at 0.25% v/v in the final spray solution. Treatment rates are: 200, 400, and 600 g ae/ha (“ha” means hectare) and each treatment is replicated three times. Treatments are applied with a tracksprayer. The sprayer utilizes an 8002E spray nozzle, spray pressure of 262 kPa pressure and speed of 2.2 mph to deliver 140 L/Ha. The nozzle height is 46 cm above the pots. Percent visual injury assessments are made at 18 DAA (days after application) on a scale of 0 to 100% as compared to the untreated control plants (where 0 is equal to no injury and 100 is equal to complete death of the plant). Results are shown in Table 10 as % Control of Sicklepod with Glyphosate compared to commercial herbicides.

Data set [2] in a line: Ross-Miles foam height test (ASTM D1173). The following applies: for Ross Miles Foam Height, millimeters, Initial: Initial (0 sec). The class given is physicochemical. Here is the method:
A) Ross-Miles Foam Height Test: This test is carried out according to the protocol of ASTM […].

A short description of data set [3]: Surface tension and critical micelle concentration (Wilhelmy plate). The class given is physicochemical. The following applies: for Surface Tension: 0.1 wt % in water; for Critical Micelle Concentration: in de-ionized water. Here is the method:
B) Surface Tension and Critical Micelle Concentration (CMC) Measurement. For this test the surface tension of a surfactant-water solution is measured while incrementally adding the surfactant to de-ionized water. Results are measured in terms of dyne/centimeters using a Wilhelmy plate. Results are recorded versus surfactant concentration. The Critical Micelle Concentration is the point at which an increase in surfactant concentration no longer results in a change in surface tension.

Another data set is described as follows: Cloud point. The class given is physicochemical.
Data set [4] can be described thus: Gel range in water at 23 C. Type of data set: physicochemical. Set-up: key: L = Liquid; G = Gel; TL = Thick Liquid. On the procedure:
One way the industry expresses a tendency of a surfactant to cause gels is a “gel range.” A typical gel range describes a percentage of samples that form gels, out of a number of samples, each having increasing surfactant concentration. […] A sample forms a gel when it is non-pourable for at least five seconds at 23° centigrade (° C.) when its container is inverted 180° so the container's open spout or mouth faces down. For many applications, a surfactant ideally has no gel range.
D) Gel range: Ten surfactant solutions are made using 0%, 10%, 20%, 30%, 40%, 50%, 60%, 70%, 80%, 90% water. […] The test is run at 23 C.

A short description of data set [5]: Pour point test (ASTM D97). The class given is physicochemical. Here is the method:
C) Pour Point Test: This test is carried out according to the protocol of ASTM Test D97.

A further data set concerns Daphna magna. Description: 48-hour acute toxicity to Daphnia. Type of data set: in vivo. An excerpt: The study procedures and test methods were based on the recommendations of the following guidelines: […]
The subject of another data set is Desmondesmus subspicatus. Description: Fresh water algal growth inhibition test (OECD 201). The class given is cell-based. The following applies: growth rate. An excerpt:
Organization for Economic Cooperation and Development (OECD): OECD Guidelines for the Testing of Chemicals, “Freshwater Alga and Cyanobacteria, Growth Inhibition Test”, Procedure 201, adopted 23 Mar. 2006; European Economic Community (EEC): […] OECD Guidelines for the Testing of Chemicals, “Freshwater Alga and Cyanobacteria, Growth Inhibition Test”, Procedure 201, adopted 23 Mar. 2006; European Economic Community (EEC): […]

Data set [6] in a line: Formula stability with LAS, sodium citrate and water. Type of data set: physicochemical. Also on record: key to Formula stability: S = Stable; U = Unstable. The text has this:
When mixed with dodecyl benzene sulfonic acid (sodium salt), and sodium citrate in water, the surfactants of the present invention show enhanced formula stability relative to conventional surfactants.

For the substance 2EH(PO)5(EO)6 [Example 7], the figures for the “Arbitrary Gray Value” in data set [1] (0.5% by weight in water) and in [1] (1% by weight in water) were 106 and 179, respectively. Besides, the “cleaning of cross-linked triglycerides (in words)” value was “performs as well as NP-9” in data set [1]; “performs as well and NP-9” in data set [1] (listed as 2EH(PO)5(EO)6). Further, the entries for the “% Control of Sicklepod with Glyphosate” value with Sicklepod (200 G/ha glyphosate), in the data set on Sicklepod (400 G/ha glyphosate) and in the data set on Sicklepod (600 G/ha glyphosate) were 66.7%, 81.7% and 98.3%, respectively.

For the substance 2EH(PO)2(EO)4 [Example 1], in data set [2], the “Ross Miles Foam Height, millimeters, 5 Minutes” value turned out to be 5 millimeters and the “Ross Miles Foam Height, millimeters, Initial” value was 110 millimeters. Moreover, in data set [3], the “Surface Tension” value worked out at 35 dyne/centimeters and the Critical Micelle Concentration was 3300 ppm.

Take C12-14(EO)5 [reference compound]: the “Arbitrary Gray Value” in [1] (1% by weight in water) is 68.

In turn, C9(PO)4(EO)6.8 registered a cloud point in “Cloud point” of 43.0 C.

Take 2EH(PO)3(EO)6.8 [Example 2]: the “Gel Range, Percent Surfactant in Water at 23 C.” value (from here on “Gel Range, Percent Surfactant”) in [4] (10% surfactant in water), in [4] (20% surfactant in water), in data set [4] (30% surfactant in water), in data set [4] (40% surfactant in water), in [4] (50% surfactant in water) and in data set [4] (60% surfactant in water) was “L” throughout. Besides, the “Gel Range, Percent Surfactant” value in data set [4] (70% surfactant in water), in data set [4] (80% surfactant in water) and in data set [4] (90% surfactant in water) was “L” each time. Moreover, the “Ross Miles Foam Height, millimeters, 5 Minutes” value in [2] worked out at 5 millimeters. The “Ross Miles Foam Height, millimeters, Initial” value in data set [2] was 115 millimeters. Moreover, the “Pour Point” value in data set [5] amounted to 50 ° F. Also, the “Surface Tension” value in data set [3] is given as 32 dyne/centimeters. For the same substance, in [3], the Critical Micelle Concentration was 2400 ppm.

As for 2EH(PO)5(EO)3 [Example 6], the “48-hour Acute Toxicity to Daphna magna (EC50-50 hour)” value in the data set with Daphna magna is recorded as 33.6 mg/L. For the same substance, the “Fresh Water algal growth inhibition test with Desmondesmus subspicatus ErC50/0-3” value in the data set on Desmondesmus subspicatus was 31.9 mg/L.

Consider C9(BO)1(EO)6, for which the cloud point in “Cloud point” came out at 38.5 C.

With C9(BO)1(EO)5, the cloud point in the data set “Cloud point” was determined as 21.4 C.

Turning to C9(PO)4(EO)5.5, the cloud point in the data set “Cloud point” is listed as 31.0 C.

With C9(PO)4(EO)8 [Example 10], the “48-hour Acute Toxicity to Daphna magna (EC50-50 hour)” value in the data set with Daphna magna is 29.2 mg/L. The cloud point in “Cloud point” is listed as 55.3 C. For the same substance, the “Fresh Water algal growth inhibition test with Desmondesmus subspicatus ErC50/0-3” value in the data set with Desmondesmus subspicatus worked out at 26 mg/L.

With 2EH(PO)11(EO)11 [Example 5], the Formula stability result was “S” in [6] (15% LAS/0% Na Cit in water), “S” in [6] (15% LAS/1% Na Cit in water), “S” in data set [6] (15% LAS/2% Na Cit in water) and “U” in data set [6] (15% LAS/4% Na Cit in water). Moreover, the “formula stability (in words)” value in [6] (cleaning formulations, without hydrotrope) is “stable”. For the same substance, the “Gel Range, Percent Surfactant” value in data set [4] (10% surfactant in water) was “L”; in data set [4] (20% surfactant in water), “L”; in data set [4] (30% surfactant in water), “L”; in data set [4] (40% surfactant in water) it was “G”; in data set [4] (50% surfactant in water), “G”; in data set [4] (60% surfactant in water), “G”. Also, the “Gel Range, Percent Surfactant” value was “G” in [4] (70% surfactant in water), “G” in [4] (80% surfactant in water) and “L” in data set [4] (90% surfactant in water). Moreover, in data set [2], the “Ross Miles Foam Height, millimeters, 5 Minutes” value came out at 15 millimeters. The “Ross Miles Foam Height, millimeters, Initial” value in data set [2] worked out at 75 millimeters. For the same substance, the “Pour Point” value in data set [5] is reported as 36 ° F. Also, in data set [3], the “Surface Tension” value is reported as 30 dyne/centimeters. The substance also yielded a Critical Micelle Concentration in data set [3] of 300 ppm.

For the substance 2EH(PO)9(EO)9 [Example 4], the “Gel Range, Percent Surfactant” value in data set [4] (10% surfactant in water) is on record as “L”; in [4] (20% surfactant in water) it was “L”; in data set [4] (30% surfactant in water), “L”; in [4] (40% surfactant in water), “TL”; in data set [4] (50% surfactant in water) it was “G”; in data set [4] (60% surfactant in water) it was “G”. The “Gel Range, Percent Surfactant” value in data set [4] (70% surfactant in water) is recorded as “G”; in data set [4] (80% surfactant in water) it was “G”; in data set [4] (90% surfactant in water), “L”. In data set [2], the “Ross Miles Foam Height, millimeters, 5 Minutes” value was 5 millimeters. Besides, the “Ross Miles Foam Height, millimeters, Initial” value in [2] is on record as 50 millimeters. In addition, in data set [5], the “Pour Point” value came out at 37 ° F. The “Surface Tension” value in data set [3] came to 30 dyne/centimeters. This substance gave a Critical Micelle Concentration in data set [3] of 400 ppm.

In the case of C8-16(PO)2.5(EO)5 [reference compound], the “Arbitrary Gray Value” in data set [1] (0.5% by weight in water) was 48.
